In patent US20060069132A1, “Azolecarboxamide herbicides” (priority 2004, published 2006):

Assays:
[1] = system: large crabgrass; test: Test A pre-/postemergence herbicide test; type: in vivo, Digitaria sanguinalis
Procedure, shortened: (§1)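 Sandy loam soil given preemergence directed spray; plants at 2 to 10 cm, one- to two-leaf stage, sprayed to runoff postemergence, compounds in non-phytotoxic solvent with surfactant. Injury rated visually versus untreated controls after about ten greenhouse days, 0 (no effect) to 100 (complete control); dash means not tested.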

[2] = system: giant foxtail; test: Test A pre-/postemergence herbicide test; type: in vivo, Setaria faberi
Procedure, shortened: as §1

[3] = system: velvetleaf; test: Test A pre-/postemergence herbicide test; type: in vivo, Abutilon theophrasti
Procedure, shortened: as §1

[4] = system: woolly cupgrass; test: Test C pre-/postemergence herbicide test; type: in vivo, Eriochloa villosa; conditions: for Cupgrass, Woolly plant response rating: 500 g ai/ha
Procedure, shortened: (§2)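 Preemergence: seeds planted and treated with compound in non-phytotoxic solvent with surfactant; postemergence: plants at 2 to 18 cm (1- to 4-leaf stage) sprayed likewise. Kept in greenhouse 12 to 14 days, then visually rated against controls, 0 (no effect) to 100 (complete control).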

[5] = system: giant foxtail; test: Test C pre-/postemergence herbicide test; type: in vivo, Setaria faberi; conditions: for Foxtail, Giant plant response rating: 500 g ai/ha
Procedure, shortened: as §2

[6] = system: morningglory; test: Test C pre-/postemergence herbicide test; type: in vivo, Ipomoea coccinea; set-up: key to Plant response rating, Morningglory: 0 = no effect, 100 = complete control; conditions: for Morningglory plant response rating: 500 g ai/ha
Procedure, shortened: as §2

[7] = system: yellow nutsedge; test: Test C pre-/postemergence herbicide test; type: in vivo, Cyperus esculentus; conditions: for Nutsedge, Yellow plant response rating: 500 g ai/ha
Procedure, shortened: as §2

[8] = system: soybean; test: Test C pre-/postemergence herbicide test; type: in vivo, Glycine max; conditions: for Soybean plant response rating: 500 g ai/ha
Procedure, shortened: as §2

[9] = system: ducksalad; test: Test C flooded paddy test; type: in vivo, Heteranthera limosa; conditions: for Plant response rating, Ducksalad: visual rating after 12 to 14 days
[10] = system: barnyardgrass; test: Test C flooded paddy test; type: in vivo, Echinochloa crus-galli; conditions: for Plant response rating, Barnyardgrass: visual rating after 12 to 14 days
Procedure, shortened: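 Ratings (0 = no effect, 100 = complete control) come from visual comparison with untreated plants after 12 to 14 days in the greenhouse. Treatment was postemergence at the 1- to 4-leaf stage (2–18 cm), or at the 2-leaf stage for the flooded paddy barnyardgrass.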

[11] = Postemergence, 500 g ai/ha, 0 to 100 scale, 0 no effect, 100 complete control
[12] = Postemergence, 2000 g ai/ha, 0 to 100 scale, 0 no effect, 100 complete control
[13] = Preemergence, 500 g ai/ha, visual rating, 0 to 100 scale (0 no effect, 100 complete control)
[14] = Preemergence, 2000 g ai/ha, 0 to 100 scale, 0 no effect, 100 complete control
[15] = 125 g ai/ha, scale 0-100, preemergence
[16] = 250 g ai/ha, scale 0 to 100 (0 no effect, 100 complete control), visual, 12 to 14 days, preemergence
[17] = Postemergence, 125 g ai/ha, scale 0 to 100, 0 no effect, 100 complete control
[18] = Postemergence, 250 g ai/ha, scale 0 to 100, 0 no effect, 100 complete control
[19] = Preemergence, scale 0 to 100, 0 no effect, 100 complete control
[20] = postemergence, 62 g ai/ha, scale 0 to 100
[21] = postemergence, 125 g ai/ha, scale 0 to 100
[22] = 62 g ai/ha, scale 0 to 100 (0 no effect, 100 complete control)
[23] = 125 g ai/ha, scale of 0 to 100, 0 is no effect, 100 is complete control
[24] = 250 g ai/ha, scale 0 to 100 (0 no effect, 100 complete control)
[25] = 500 g ai/ha, scale 0 to 100 (0 no effect, 100 complete control)
[26] = Preemergence, 2000 g ai/ha, visual rating, 0 to 100 scale (0 no effect, 100 complete control)
[27] = 125 g ai/ha, scale 0 (no effect) to 100 (complete control), visual, 12 to 14 days, preemergence
[28] = 250 g ai/ha, scale of 0 to 100, 0 is no effect, 100 is complete control
[29] = preemergence, 500 g ai/ha, visual injury, 0 to 100 scale (0 no effect, 100 complete control)
[30] = 62 g ai/ha, preemergence, scale 0 to 100
[31] = 250 g ai/ha, scale 0-100, preemergence
[32] = 125 g ai/ha, scale 0 to 100 (0 no effect, 100 complete control)

## C=Cn1nc(C(C)(C)C)cc1C(=O)Nc1cccc(C(=O)N(CC)CC)c1 [Compound 34]
[1]; [11]
  Plant response rating, Crabgrass, Large: 30
[1]; [12]
  Plant response rating, Crabgrass, Large: 50
[1]; [13]
  Crabgrass, Large plant response rating: 60
[1]; [14]
  Crabgrass, Large plant response rating: 100
[2]; [11]
  Plant response rating, Foxtail, Giant: 30
[2]; [12]
  Plant response rating, Foxtail, Giant: 40
[2]; [13]
  Foxtail, Giant plant response rating: 40
[2]; [14]
  Foxtail, Giant plant response rating: 85
[3]; [11]
  Plant response rating, Velvetleaf: 20
[3]; [12]
  Plant response rating, Velvetleaf: 30
[3]; [13]
  Velvetleaf plant response rating: 20
[3]; [14]
  Velvetleaf plant response rating: 25
[4]; 62 g ai/ha, preemergence
  Plant response rating (0 = no effect, 100 = complete control), Cupgrass, Woolly: 10
[4]; [15]
  Plant response rating, Cupgrass, Woolly: 20
[4]; [16]
  Plant response rating, Cupgrass, Woolly: 70
[4]; Postemergence, scale 0 to 100
  Cupgrass, Woolly plant response rating: 90
[4]; [17]
  Plant response rating, Cupgrass, Woolly: 60
[4]; [18]
  Plant response rating, Cupgrass, Woolly: 80
[4]; [19]
  Cupgrass, Woolly plant response rating: 70
[4]; [20]
  Plant response rating, Cupgrass, Woolly: 40
[5]; 62 g ai/ha, preemergence
  Plant response rating (0 = no effect, 100 = complete control), Foxtail, Giant: 10
[5]; [15]
  Plant response rating, Foxtail, Giant: 70
[5]; [16]
  Plant response rating, Foxtail, Giant: 90
[5]; Postemergence, scale 0 to 100
  Foxtail, Giant plant response rating: 40
[5]; [17]
  Plant response rating, Foxtail, Giant: 40
[5]; [18]
  Plant response rating, Foxtail, Giant: 40
[5]; [19]
  Foxtail, Giant plant response rating: 100
[5]; [20]
  Plant response rating, Foxtail, Giant: 20
[6]; 62 g ai/ha, preemergence
  Plant response rating (0 = no effect, 100 = complete control), Morningglory: 0
[6]; [16]
  Plant response rating, Morningglory: 0
[6]; Postemergence, scale 0 to 100
  Morningglory plant response rating: 40
[6]; [18]
  Plant response rating, Morningglory: 10
[6]; [19]
  Morningglory plant response rating: 100
[6]; [21]
  Plant response rating, Morningglory: 10
[6]; [20]
  Plant response rating, Morningglory: 10
[7]; 62 g ai/ha, preemergence
  Plant response rating (0 = no effect, 100 = complete control), Nutsedge, Yellow: 0
[7]; [16]
  Plant response rating, Nutsedge, Yellow: 0
[7]; Postemergence, scale 0 to 100
  Nutsedge, Yellow plant response rating: 20
[7]; [18]
  Plant response rating, Nutsedge, Yellow: 0
[7]; [19]
  Nutsedge, Yellow plant response rating: 0
[7]; [21]
  Plant response rating, Nutsedge, Yellow: 0
[7]; [20]
  Plant response rating, Nutsedge, Yellow: 0
[8]; 62 g ai/ha, preemergence
  Plant response rating (0 = no effect, 100 = complete control), Soybean: 0
[8]; [16]
  Plant response rating, Soybean: 0
[8]; Postemergence, scale 0 to 100
  Soybean plant response rating: 80
[8]; [18]
  Plant response rating, Soybean: 80
[8]; [19]
  Soybean plant response rating: 0
[8]; [21]
  Plant response rating, Soybean: 80
[8]; [20]
  Plant response rating, Soybean: 70
[9]; [22]
  Ducksalad plant response rating: 15
[9]; [23]
  Ducksalad plant response rating: 25
[9]; [24]
  Plant response rating, Ducksalad: 25
[9]; [25]
  Plant response rating, Ducksalad: 75
[10]; [22]
  Barnyardgrass plant response rating: 0
[10]; [23]
  Barnyardgrass plant response rating: 35
[10]; [24]
  Plant response rating, Barnyardgrass: 45
[10]; [25]
  Plant response rating, Barnyardgrass: 65

## CCN1CCc2c(NC(=O)c3cc(C(C)(C)C)nn3CC)cccc2C1=O [Compound 63]
[1]; [11]
  Plant response rating, Crabgrass, Large: 40
[1]; [12]
  Plant response rating, Crabgrass, Large: 80
[1]; [13]
  Crabgrass, Large plant response rating: 90
[1]; [14]
  Crabgrass, Large plant response rating: 100
[2]; [11]
  Plant response rating, Foxtail, Giant: 50
[2]; [12]
  Plant response rating, Foxtail, Giant: 80
[2]; [13]
  Foxtail, Giant plant response rating: 95
[2]; [14]
  Foxtail, Giant plant response rating: 100
[3]; [12]
  Plant response rating, Velvetleaf: 55
[3]; [13]
  Velvetleaf plant response rating: 20
[3]; [26]
  Velvetleaf plant response rating: 70
[4]; 62 g ai/ha, preemergence
  Plant response rating (0 = no effect, 100 = complete control), Cupgrass, Woolly: 0
[4]; [27]
  Plant response rating, Cupgrass, Woolly: 0
[4]; [16]
  Plant response rating, Cupgrass, Woolly: 0
[4]; [19]
  Cupgrass, Woolly plant response rating: 5
[5]; 62 g ai/ha, preemergence
  Plant response rating (0 = no effect, 100 = complete control), Foxtail, Giant: 0
[5]; [27]
  Plant response rating, Foxtail, Giant: 5
[5]; [16]
  Plant response rating, Foxtail, Giant: 10
[5]; [19]
  Foxtail, Giant plant response rating: 80
[6]; 62 g ai/ha, preemergence
  Plant response rating (0 = no effect, 100 = complete control), Morningglory: 0
[6]; [27]
  Plant response rating, Morningglory: 40
[6]; [16]
  Plant response rating, Morningglory: 40
[6]; [19]
  Morningglory plant response rating: 40
[7]; 62 g ai/ha, preemergence
  Plant response rating (0 = no effect, 100 = complete control), Nutsedge, Yellow: 0
[7]; [27]
  Plant response rating, Nutsedge, Yellow: 0
[7]; [16]
  Plant response rating, Nutsedge, Yellow: 0
[7]; [19]
  Nutsedge, Yellow plant response rating: 40
[8]; 62 g ai/ha, preemergence
  Plant response rating (0 = no effect, 100 = complete control), Soybean: 0
[8]; [27]
  Plant response rating, Soybean: 0
[8]; [16]
  Plant response rating, Soybean: 10
[8]; [19]
  Soybean plant response rating: 70
[9]; [22]
  Ducksalad plant response rating: 0
[9]; [23]
  Ducksalad plant response rating: 50
[9]; [28]
  Ducksalad plant response rating: 70
[9]; [25]
  Plant response rating, Ducksalad: 85
[10]; [22]
  Barnyardgrass plant response rating: 0
[10]; [23]
  Barnyardgrass plant response rating: 0
[10]; [28]
  Barnyardgrass plant response rating: 20
[10]; [25]
  Plant response rating, Barnyardgrass: 50

## CCNC(=O)c1ccc(F)c(NC(=O)c2cc(C3(C)CC3)nn2CC)c1 [Compound 300]
[1]; [11]
  Crabgrass, Large plant response rating: 55
[1]; [12]
  Plant response rating, Crabgrass, Large: 90
[1]; [26]
  Crabgrass, Large plant response rating: 100
[1]; [29]
  Crabgrass, Large plant response rating: 90
[2]; [11]
  Foxtail, Giant plant response rating: 55
[2]; [12]
  Plant response rating, Foxtail, Giant: 90
[2]; [26]
  Foxtail, Giant plant response rating: 100
[2]; [29]
  Foxtail, Giant plant response rating: 95
[3]; [11]
  Velvetleaf plant response rating: 60
[3]; [12]
  Plant response rating, Velvetleaf: 80
[3]; [26]
  Velvetleaf plant response rating: 100
[3]; [29]
  Velvetleaf plant response rating: 85
[4]; [30]
  Plant response rating, Cupgrass, Woolly: 20
[4]; [27]
  Plant response rating, Cupgrass, Woolly: 50
[4]; [31]
  Plant response rating, Cupgrass, Woolly: 60
[5]; [30]
  Plant response rating, Foxtail, Giant: 30
[5]; [27]
  Plant response rating, Foxtail, Giant: 65
[5]; [31]
  Plant response rating, Foxtail, Giant: 100
[6]; [30]
  Plant response rating, Morningglory: 5
[6]; [27]
  Plant response rating, Morningglory: 40
[6]; [31]
  Plant response rating, Morningglory: 40
[7]; 31 g ai/ha, scale 0 to 100, last section of Table C, preemergence
  Plant response rating, Nutsedge, Yellow: 0
[7]; [30]
  Plant response rating, Nutsedge, Yellow: 0
[7]; [27]
  Plant response rating, Nutsedge, Yellow: 20
[7]; [31]
  Plant response rating, Nutsedge, Yellow: 60
[8]; [30]
  Plant response rating, Soybean: 0
[8]; [31]
  Plant response rating, Soybean: 70
[9]; 62 g ai/ha, scale 0 to 100
  Ducksalad plant response rating: 75
[9]; [32]
  Ducksalad plant response rating: 80
[9]; [28]
  Ducksalad plant response rating: 85
[9]; [25]
  Plant response rating, Ducksalad: 90
[10]; [22]
  Barnyardgrass plant response rating: 35
[10]; [32]
  Barnyardgrass plant response rating: 50
[10]; [28]
  Barnyardgrass plant response rating: 90
[10]; [25]
  Plant response rating, Barnyardgrass: 95
